Measured values: US20230062100A1, “SUBSTITUTED AMINOQUINOLONES AS DGKALPHA INHIBITORS FOR IMMUNE ACTIVATION” (Bayer Aktiengesellschaft, priority 2019, published 2023)

The compounds below were run against DGKα (Homo sapiens, UniProt P23743) (assay: Human DGKα kinase activity inhibition assay (ADP-Glo)). Conditions: in vitro human DGKα kinase activity inhibition assay.
DGKα, sequence (P23743 with tags, fused parts or gaps): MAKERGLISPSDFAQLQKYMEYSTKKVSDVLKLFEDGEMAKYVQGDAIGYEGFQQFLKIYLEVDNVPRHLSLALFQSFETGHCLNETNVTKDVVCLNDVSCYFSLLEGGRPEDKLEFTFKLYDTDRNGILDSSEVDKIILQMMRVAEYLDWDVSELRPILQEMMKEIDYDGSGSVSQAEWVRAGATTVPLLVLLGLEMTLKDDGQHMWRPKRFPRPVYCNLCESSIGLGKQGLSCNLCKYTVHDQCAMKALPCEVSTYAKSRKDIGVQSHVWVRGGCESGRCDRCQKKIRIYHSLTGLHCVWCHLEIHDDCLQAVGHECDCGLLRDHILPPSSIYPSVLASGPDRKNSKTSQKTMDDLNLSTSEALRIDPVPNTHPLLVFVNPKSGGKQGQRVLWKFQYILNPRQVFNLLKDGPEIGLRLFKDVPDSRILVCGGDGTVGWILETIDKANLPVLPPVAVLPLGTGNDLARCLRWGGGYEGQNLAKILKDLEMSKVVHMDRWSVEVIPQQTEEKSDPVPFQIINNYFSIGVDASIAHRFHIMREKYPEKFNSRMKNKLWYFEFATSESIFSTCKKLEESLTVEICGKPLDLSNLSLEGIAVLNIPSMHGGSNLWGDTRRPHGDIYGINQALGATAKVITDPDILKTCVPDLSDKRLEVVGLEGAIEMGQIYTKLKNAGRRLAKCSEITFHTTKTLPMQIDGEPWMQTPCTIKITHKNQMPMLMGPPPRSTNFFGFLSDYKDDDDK
Assay type: biochemical
Protocol: Human DGKα inhibitory activity of compounds of the present invention was quantified employing the human DGKα kinase activity assay as described in the following paragraphs. In essence, the enzyme activity was measured by quantification of the adenosine-di-phosphate (ADP) generated as a co-product of the enzyme reaction via the “ADP-Glo™ Kinase Assay” kit from the company Promega. This detection system works as follows: In a first step the ATP not consumed in the kinase reaction is quantitatively converted to cAMP employing an adenylate cyclase (“ADP-Glo-reagent”), then the adenylate cyclase is stopped and the ADP generated in the kinase reaction converted to ATP, which subsequently generates in a luciferase-based reaction a glow-luminescence signal (“Kinase Detection Reagent”). C-terminally FLAG-tagged, recombinant full-length human DGKα (expressed in baculovirus infected insect cells, purified using anti-Flag pulldown and size exclusion chromatography as described below, DGKα_hu_1) was used as enzyme. As substrate for the kinase 1,2-dioleoyl-sn-glycerol, reconstituted in octyl-β-D-glucopyranoside micelles, was used. For the preparation of the micelles, 1 volume of a 16.1 mM solution of 1,2-dioleoyl-sn-glycerol (Avanti, Cat. #O8001-25G) in chloroform was slowly evaporated using a nitrogen stream. Subsequently, 22.55 volumes of a 510 mM solution of octyl-β-D-glucopyranoside (Sigma-Aldrich, Cat. #O8001-10G) in 50 mM MOPS buffer (pH 7.4) were added, and the mixture was sonicated in an ultrasonic bath for 20 s. Then 35 volumes of 50 mM MOPS buffer (pH 7.4) were added to yield a solution of 0.28 mM 1,2 dioleoyl-sn-glycerol and 200 mM octyl-β-D-glucopyranoside, which was aliquoted, flash-frozen in liquid nitrogen, and stored at −20° C. until use. For each experiment, a fresh aliquot was quickly thawed and diluted 24-fold with aqueous assay buffer (described below) containing 95.7 μM adenosine triphosphate (Promega) to yield a 1.67-fold concentrated substrate solution. For the assay 50 nl of a 100-fold concentrated solution of the test compound in dimethyl sulfoxide (DMSO, Sigma) was pipetted into either a white 1536-well or a white low-volume 384-well microtiter plate (both Greiner Bio-One, Frickenhausen, Germany). […] The concentration of DGK a was adjusted depending of the activity of the enzyme lot and was chosen appropriate to have the assay in the linear range, a typical concentration is about 0.1 nM. The reaction was stopped by the addition of 2.5 μl of “ADP-Glo-reagent” (1 to 1.5 diluted with water) and the resulting mixture was incubated at 22° C. for 1 h to convert the ATP not consumed in the kinase reaction completely to cAMP. […] The amount of emitted light was taken as a measure for the amount of ADP generated and thereby for the activity of the DGKα.
`Cn1c(=O)c(C#N)c(N2CCC(Oc3ccc4cnoc4c3)CC2)c2ccccc21` [Example 29, 4-{4-[(1,2-benzoxazol-6-yl)oxy]piperidin-1-yl}-1-methyl-2-oxo-1,2-dihydroquinoline-3-carbonitrile] was tested, and the IC50 was 654 nM.
In the case of `Cn1c(=O)c(C(N)=O)c(N2CCC(OCc3ccc(F)cc3)CC2)c2ccccc21` [Example 127, 4-{4-[(4-fluorophenyl)methoxy]piperidin-1-yl}-1-methyl-2-oxo-1,2-dihydroquinoline-3-carboxamide], the IC50 is reported as 14 nM.
`COc1cccc(OC2CCN(c3c(C#N)c(=O)n(C)c4ccc(C)cc34)CC2)c1` [Example 152, 4-[4-(3-methoxyphenoxy)piperidin-1-yl]-1,6-dimethyl-2-oxo-1 2-dihydroquinoline-3-carbonitrile] showed an IC50 of 3.8 nM.
`Cn1c(=O)c(C#N)c(N2CCC(Oc3ccc(OC(F)(F)F)cc3)CC2)c2ccc(Br)cc21` [Example 58, 7-bromo-1-methyl-2-oxo-4-{4-[4-(trifluoromethoxy)phenoxy]piperidin-1-yl}-1,2-dihydroquinoline-3-carbonitrile] gave an IC50 of 19 nM.
`Cn1c(=O)c(C#N)c(N2CCC(COc3ccc(Cl)cc3)CC2)c2ccccc21` [Example 116, 4-{4-[(4-chlorophenoxy)methyl]piperidin-1-yl}-1-methyl-2-oxo-1,2-dihydroquinoline-3-carbonitrile] showed an IC50 of 6.4 nM.
`Cn1c(=O)c(C#N)c(N2CCCC(Oc3ccc(N4CCC4)cc3)CC2)c2ccccc21` (racemic) [Example 104, (rac)-4-{4-[4-(azetidin-1-yl)phenoxy]azepan-1-yl}-1-methyl-2-oxo-1,2-dihydroquinoline-3-carbonitrile] gave an IC50 of 40 nM.
For `Cn1c(=O)c(C#N)c(N2CCC(COc3ccccc3)CC2)c2ccccc21` [Example 118, 1-methyl-2-oxo-4-[4-(phenoxymethyl)piperidin-1-yl]-1,2-dihydroquinoline-3-carbonitrile], the IC50 was 123 nM.
Compound `Cc1ccc2c(c1)c(N1CCC(Oc3ccccc3Cl)CC1)c(C(N)=O)c(=O)n2C` [Example 163, 4-[4-(2-chlorophenoxy)piperidin-1-yl]-1,6-dimethyl-2-oxo-1,2-dihydroquinoline-3-carboxamide] has an IC50 of 59 nM.
Work on `Cc1cccc(OC2CCN(c3c(C(N)=O)c(=O)n(C)c4ccc(C)cc34)CC2)c1` [Example 158, 1,6-dimethyl-4-[4-(3-methylphenoxy)piperidin-1-yl]-2-oxo-1,2-dihydroquinoline-3-carboxamide] yielded an IC50 of 12 nM.
In the case of `Cn1c(=O)c(C#N)c(N2CCC(Oc3ccc(-n4cncn4)cc3)CC2)c2ccccc21` [Example 17, 1-methyl-2-oxo-4-{4-[4-(1H-1,2,4-triazol-1-yl)phenoxy]piperidin-1-yl}-1,2-dihydroquinoline-3-carbonitrile], the IC50 is reported as 45 nM.
For `COc1cccc(COC2CCN(c3c(C#N)c(=O)n(C)c4ccccc34)CC2)c1` [Example 115, 4-{4-[(3-methoxyphenyl)methoxy]piperidin-1-yl}-1-methyl-2-oxo-1,2-dihydroquinoline-3-carbonitrile], the IC50 was 29 nM.
`CCOC(=O)c1ccc(OC2CCN(c3c(C#N)c(=O)n(C)c4ccccc34)CC2)cc1` [Example 12, ethyl 4-{[1-(3-cyano-1-methyl-2-oxo-1,2-dihydroquinolin-4-yl)piperidin-4-yl]oxy}benzoate] was tested, and the IC50 was 12 nM.
In the case of `Cn1c(=O)c(C(N)=O)c(N2CCC(Oc3ccc(OC(F)(F)F)cc3)CC2)c2ccc(N3CCCC3=O)cc21` [Example 96, 1-methyl-2-oxo-7-(2-oxopyrrolidin-1-yl)-4-{4-[4-(trifluoromethoxy)phenoxy]piperidin-1-yl}-1,2-dihydroquinoline-3-carboxamide], the IC50 is reported as 12 nM.
For `Cn1c(=O)c(C#N)c(N2CCC(Oc3ccccc3)CC2)c2ccc(Br)cc21` [Example 54, 7-bromo-1-methyl-2-oxo-4-(4-phenoxypiperidin-1-yl)-1,2-dihydroquinoline-3-carbonitrile], the IC50 was 5.8 nM.
For `Cn1c(=O)c(C(N)=O)c(N2CCC(Oc3ccc(OC(F)(F)F)cc3)CC2)c2cccc(Cl)c21` [Example 164, 8-chloro-1-methyl-2-oxo-4-{4-[4-(trifluoromethoxy)phenoxy]piperidin-1-yl}-1,2-dihydroquinoline-3-carboxamide], the IC50 was 37 nM.
`Cn1c(=O)c(C#N)c(N2CCC(Oc3ccc(OC(F)(F)F)cc3)CC2)c2cc(C#N)ccc21` [Example 145, 1-methyl-2-oxo-4-{4-[4-(trifluoromethoxy)phenoxy]piperidin-1-yl}-1,2-dihydroquinoline-3,6-dicarbonitrile] showed an IC50 of 4.4 nM.
For `Cn1c(=O)c(C#N)c(N2CCC(Oc3ccc(OC(F)(F)F)cc3)CC2)c2ccc(N3CCCC3=O)cc21` [Example 82, 1-methyl-2-oxo-7-(2-oxopyrrolidin-1-yl)-4-{4-[4-(trifluoromethoxy)phenoxy]piperidin-1-yl}-1,2-dihydroquinoline-3-carbonitrile], the IC50 was 12 nM.
In the case of `COc1ccc(OC2CCN(c3c(C#N)c(=O)n(C)c4ccccc34)CC2)cc1` [Example 46, 4-[4-(4-methoxyphenoxy)piperidin-1-yl]-1-methyl-2-oxo-1,2-dihydroquinoline-3-carbonitrile], the IC50 is reported as 32 nM.
`Cc1ccc(COC2CCN(c3c(C#N)c(=O)n(C)c4ccccc34)CC2)cc1` [Example 107, 1-methyl-4-{4-[(4-methylphenyl)methoxy]piperidin-1-yl}-2-oxo-1,2-dihydroquinoline-3-carbonitrile] gave an IC50 of 7.2 nM.
`Cn1c(=O)c(C#N)c(N2CCC(Oc3ccc(Cl)cc3)CC2)c2ccc(N3CCCC3=O)cc21` [Example 85, 4-[4-(4-chlorophenoxy)piperidin-1-yl]-1-methyl-2-oxo-7-(2-oxopyrrolidin-1-yl)-1,2-dihydroquinoline-3-carbonitrile] gave an IC50 of 28 nM.
Work on `Cn1c(=O)c(C#N)c(N2CCC(Oc3ccccc3)CC2)c2ccccc21` [Example 5, 1-methyl-2-oxo-4-(4-phenoxypiperidin-1-yl)-1,2-dihydroquinoline-3-carbonitrile] yielded an IC50 of 7.7 nM.
With `Cn1c(=O)c(C#N)c(N2CCC(OCc3cccc(F)c3)CC2)c2ccccc21` [Example 113, 4-{4-[(3-fluorophenyl)methoxy]piperidin-1-yl}-1-methyl-2-oxo-1,2-dihydroquinoline-3-carbonitrile] the IC50 was 12 nM.
Work on `Cn1c(=O)c(C#N)c(N2CCC(Oc3cccc(Cl)c3)CC2)c2ccc(Br)cc21` [Example 60, 7-bromo-4-[4-(3-chlorophenoxy)piperidin-1-yl]-1-methyl-2-oxo-1,2-dihydroquinoline-3-carbonitrile] yielded an IC50 of 27 nM.
Compound `Cn1c(=O)c(C#N)c(N2CCC(Cc3nc4ccccc4s3)CC2)c2ccccc21` [Example 93, 4-{4-[(1,3-benzothiazol-2-yl)methyl]piperidin-1-yl}-1-methyl-2-oxo-1,2-dihydroquinoline-3-carbonitrile] has an IC50 of 39 nM.
`Cn1c(=O)c(C#N)c(N2CCC(Oc3ccc(Br)cc3)CC2)c2ccccc21` [Example 8, 4-[4-(4-bromophenoxy)piperidin-1-yl]-1-methyl-2-oxo-1,2-dihydroquinoline-3-carbonitrile] was tested, and the IC50 was 13 nM.
Compound `Cc1ccc(OC2CCN(c3c(C#N)c(=O)n(C)c4ccccc34)CC2)cc1` [Example 1, 1-methyl-4-[4-(4-methylphenoxy)piperidin-1-yl]-2-oxo-1,2-dihydroquinoline-3-carbonitrile] has an IC50 of 4.2 nM.
